Experimental data as given in patent US20110015371A1 (Vertex Pharmaceuticals Incorporated, priority 1994, published 2011).
Where a name gives a salt, the structure may show the parent alone. Non-standard residues stand in square brackets, D forms with d. Residues, ends and D or L forms follow the SMILES beside them. *: point of attachment. Hyp = O=C(O)[C@@H]1C[C@@H](O)CN1; Tic = O=C(O)[C@@H]1Cc2ccccc2CN1; Bn = c1ccc(C*)cc1

Columns and labels:
ICE = target: T1, ICE (Homo sapiens, UniProt P29466); test: Enzyme assay with UV-visible substrate (Succinyl-Tyr-Val-Ala-Asp-pNitroanilide); type: biochemical
T1 sequence (P29466 120-297 limits assumed): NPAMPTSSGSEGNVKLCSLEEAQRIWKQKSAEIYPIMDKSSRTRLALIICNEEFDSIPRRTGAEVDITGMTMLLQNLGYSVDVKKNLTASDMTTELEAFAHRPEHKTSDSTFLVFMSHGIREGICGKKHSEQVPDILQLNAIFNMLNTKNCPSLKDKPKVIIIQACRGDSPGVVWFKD
T1 sequence (P29466 317-404 limits assumed): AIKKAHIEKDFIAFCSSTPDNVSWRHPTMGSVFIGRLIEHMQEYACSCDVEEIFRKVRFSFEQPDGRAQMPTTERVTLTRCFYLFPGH
Method: 1. Enzyme Assay with UV-Visible Substrate
This assay is run using an Succinyl-Tyr-Val-Ala-Asp-pNitroanilide substrate. Synthesis of analogous substrates is described by L. A. Reiter (Int. J. Peptide Protein Res. 43, 87-96 (1994)). The assay mixture contains:
The visible ICE assay is run in a 96-well microtiter plate. Buffer, ICE and DMSO (if inhibitor is present) are added to the wells in the order listed. The components are left to incubate at room temperature for 15 minutes starting at the time that all components are present in all wells. The microtiter plate reader is set to incubate at 37° C. After the 15 minute incubation, substrate is added directly to the wells and the reaction is monitored by following the release of the chromophore (pNA) at 405-603 nm at 37° C. for 20 minutes. A linear fit of the data is performed and the rate is calculated in mOD/min. DMSO is only present during experiments involving inhibitors, buffer is used to make up the volume to 100 μl in the other experiments.
For determination of enzyme inhibition constants (Ki) or the mode of inhibition (competitive, uncompetitive or noncompetitive), the rate data determined in the enzyme assays at varying inhibitor concentrations are computer-fit to standard enzyme kinetic equations (see I. H. Segel, Enzyme Kinetics, Wiley-Interscience, 1975).

[1] = tested on: Human Peripheral Blood Mononuclear Cells (PBMC) or Enriched Adherent Mononuclear Cells; test: Cell assay: IL-1β assay with human PBMC or enriched adherent mononuclear cells; type: cell-based; settings: Example 6 table, LPS-stimulated cells, mature IL-1β in supernatant by ELISA
From the text: IL-1β Assay with a Mixed Population of Human Peripheral Blood Mononuclear Cells (PBMC) or Enriched Adherent Mononuclear Cells
Processing of pre-IL-1S by ICE can be measured in cell culture using a variety of cell sources. Human PBMC obtained from healthy donors provides a mixed population of lymphocyte subtypes and mononuclear cells that produce a spectrum of interleukins and cytokines in response to many classes of physiological stimulators. Adherent mononuclear cells from PBMC provides an enriched source of normal monocytes for selective studies of cytokine production by activated cells.
An initial dilution series of test compound in DMSO or ethanol is prepared, with a subsequent dilution into RPMI-10% FBS media (containing 2 mM L-glutamine, 10 mM HEPES, 50 U and 50 ug/ml pen/strep) respectively to yield drugs at 4× the final test concentration containing 0.4% DMSO or 0.4% ethanol. The final concentration of DMSO is 0.1% for all drug dilutions. A concentration titration which brackets the apparent Ki for a test compound determined in an ICE inhibition assay is generally used for the primary compound screen.
We generally test 5-6 compound dilutions and have performed the cellular component of the assay in duplicate, with duplicate ELISA determinations on each cell culture supernatant.
Buffy coat cells isolated from one pint human blood (yielding 40-45 ml final volume plasma plus cells) are diluted with media to 80 ml and LeukoPREP separation tubes (Becton Dickinson) are each overlaid with 10 ml of cell suspension. After 15 min centrifugation at 1500-1800×g, the plasma/media layer is aspirated and then the mononuclear cell layer is collected with a Pasteur pipette and transferred to a 15 ml conical centrifuge tube (Corning). Media is added to bring the volume to 15 ml, gently mix the cells by inversion and centrifuge at 300×g for 15 min. Resuspend the PBMC pellet in a small volume of media, count cells and adjust to 6×10^6 cells/ml.
For the cellular assay, add 1.0 ml of the cell suspension to each well of a 24-well flat bottom tissue culture plate (Corning), 0.5 ml test compound dilution and 0.5 ml LPS solution (Sigma #L-3012; 20 ng/ml solution prepared in complete RPMI media; final LPS concentration 5 ng/ml). The 0.5 ml additions of test compound and LPS are usually sufficient to mix the contents of the wells. Three control mixtures are run per experiment, with either LPS alone, solvent vehicle control, and/or additional media to adjust the final culture volume to 2.0 ml. The cell cultures are incubated for 16-18 hr at 37° C. in the presence of 5% CO2.
At the end of the incubation period, cells are harvested and transferred to 15 ml conical centrifuge tubes. After centrifugation for 10 min at 200×g, supernatants are harvested and transferred to 1.5 ml Eppendorf tubes. It may be noted that the cell pellet may be utilized for a biochemical evaluation of pre-IL-1S and/or mature IL-1β content in cytosol extracts by western blotting or ELISA with pre-IL-1β specific antisera.
PBMC are isolated and prepared as described above. Media (1.0 ml) is first added to wells followed by 0.5 ml of the PBMC suspension. After a one hour incubation, plates are gently shaken and nonadherent cells aspirated from each well. Wells are then gently washed three times with 1.0 ml of media and final resuspended in 1.0 ml media. The enrichment for adherent cells generally yields 2.5−3.0×10^5 cells per well. The addition of test compounds, LPS, cell incubation conditions and processing of supernatants proceeds as described above.
We have used Quantikine kits (R&D Systems) for measurement of mature IL-1β. Assays are performed according to the manufacturer's directions. Mature IL-1β levels of about 1-3 ng/ml in both PBMC and adherent mononuclear cell positive controls are observed. ELISA assays are performed on 1:5, 1:10 and 1:20 dilutions of supernatants from LPS-positive controls to select the optimal dilution for supernatants in the test panel.

Structure (SMILES)	Ki (ICE; Example 6 table) [nM]	IC50 ([1]; Homo sapiens, PBMC) [nM]	other results
CC(=O)N[C@H](C(=O)N1C[C@H](OCc2ccccc2)C[C@H]1C(=O)N[C@H](C=O)CC(=O)O)C(C)C [Compound 158] (Ac-Val-[Hyp](Bn)-Asp-aldehyde)	1100		
COc1cccc2nc(C(=O)[C@H](CC(=O)O)NC(=O)[C@H](C)n3cccc(NC(=O)CCc4ccccc4)c3=O)oc12 [Compound 126]	450	1500	
CC(C)[C@H](NC(=O)OCc1ccccc1)C(=O)N[C@@H](C)C(=O)N[C@@H](CC(=O)O)C(=O)c1ncco1 [Compound 152]	8800		
O=C[C@H](CC(=O)O)NC(=O)CN(CCc1ccccc1)C(=O)c1ncc(CCCc2ccccc2)[nH]1 [Compound 25, (3S)-(2-{Phenethyl-[5-(3-phenylpropyl)-1H-imidazole-2-carbonyl]amino}acetylamino)-4-oxobutanoic acid trifluoroacetic acid salt]			Ki (ICE; Example 4 table): 6200 nM
COc1cccc2nc(C(=O)[C@H](CC(=O)O)NC(=O)Cn3c(Cc4ccccc4)ccc(NC(=O)CCc4ccccc4)c3=O)oc12 [Compound 127]	390	8000	
O=C[C@H](CC(=O)O)NC(=O)[C@@H]1CCc2ncc(NC(=O)CCc3ccccc3)c(=O)n21 [Compound 98, 4-Oxo-(3S)-{[4-oxo-3-(3-phenyl-propionylamino)-4,6,7,8-tetrahydro-pyrrolo[1,2-a]pyrimidine-(6S)-carbonyl]-amino}-butyric acid]	535	4000	
CC(C)[C@H](NC(=O)OCc1ccccc1)C(=O)N[C@@H](C)C(=O)NC(CC(=O)O)C(=O)c1ncc(-c2ccccc2)[nH]1 (some centres unmarked) [Compound 150]	10000	30000	
O=C(O)C[C@H](NC(=O)[C@@H]1CCCN2C(=O)CC[C@H](NC(=O)CCc3ccccc3)C(=O)N12)C(=O)c1ncc(-c2c(Cl)cccc2Cl)o1 [Compound 137]	40	250	
O=C(O)C[C@H](NC(=O)Cn1c(Cc2ccccc2)ccc(NC(=O)CCc2ccccc2)c1=O)C(=O)c1ncc(-c2c(Cl)cccc2Cl)o1 [Compound 128]	40	7500	
O=C[C@H](CC(=O)O)NC(=O)Cn1c(-c2ccccc2)ccc(NC(=O)CCc2ccccc2)c1=O [Compound 54f, 3(S)3-(1,2-Dihydro-2-oxo-6-phenyl-3-(3-phenyl-propionyl)amino-1-pyridyl)acetylamino-4-oxobutanoic acid]			Ki (ICE; Example 4 table): 900 nM
CC(=O)N[C@@H](Cc1ccc(O)cc1)C(=O)N[C@H](C(=O)N1C[C@H](Oc2ccccc2)CC1C(=O)N[C@@H](CC(=O)O)C(=O)CSCc1ccccc1Cl)C(C)C (some centres unmarked) [Compound 161]	11		
O=CC(CC(=O)O)NC(=O)C1CCc2ncc(NC(=O)c3ccccc3)c(=O)n21 (single isomer, unassigned) [Compound 7b]			Ki (ICE; Example 4 table): 1200 nM
O=C[C@H](CC(=O)O)NC(=O)CN1CCCC[C@H](NC(=O)CCc2ccc(O)cc2)C1=O [Compound 92, 3-(S)-(2-(3[3-(S)-(4-Hydroxy-phenyl)-propionylamino]-2-oxo-azepan-1-yl)-acetylamino)-4-oxo-butyric acid]	3800		
O=C[C@H](CC(=O)O)NC(=O)[C@@H]1CS[C@@H]2CCC[C@H](NC(=O)CCc3ccccc3)C(=O)N21 [Compound 141]	670		
CC(C(=O)N[C@H](C=O)CC(=O)O)n1c(Cc2ccccc2)ccc(NC(=O)CCc2ccccc2)c1=O (mixture of isomers) [Compound 54h, 3(S), N(2(R,S))3-(2-(6-Benzyl-1,2-dihydro-2-oxo-3-(3-phenylpropionyl)amino-1-pyridyl)propionylamino)-4-oxobutanoic acid]			Ki (ICE; Example 4 table): 970 nM
CC(C)[C@H](NC(=O)OCc1ccccc1)C(=O)N[C@@H](C)C(=O)N[C@@H](CC(=O)O)C(=O)c1nc(-c2ccccc2)co1 [Compound 153]	240		
CC(=O)N[C@@H](Cc1ccc(O)cc1)C(=O)N[C@H](C(=O)N1Cc2ccccc2C[C@H]1C(=O)N[C@H](C=O)CC(=O)O)C(C)C [L, N-[2-(N-Acetyl-tyrosinyl-valinyl)-(S)-1,2,3,4-tetrahydroisoquinoline-3-carbonyl]-3-amino-oxobutanoic acid] (Ac-YV[Tic]D-aldehyde)			Ki (ICE; Example 2 table): 14 nM
O=CC(CC(=O)O)NC(=O)C1CCc2ncc(NC(=O)c3ccccc3)c(=O)n21 (single isomer, unassigned) [Compound 7a]			Ki (ICE; Example 4 table): 35000 nM
CC(=O)N[C@@H](Cc1ccc(O)cc1)C(=O)N[C@H](C(=O)N1CCC[C@H]1C(=O)N[C@@H](CC(=O)O)C(=O)c1ncc(-c2c(Cl)cccc2Cl)o1)C(C)C [Compound 155]	23		
O=C(O)C[C@H](NC(=O)[C@@H]1CCCN1C(=O)c1ncc(CCCc2ccccc2)[nH]1)C(=O)c1ncc(-c2c(Cl)cccc2Cl)o1 [Compound 157]	260		

The next lines start with results.

Ki (ICE; Example 6 table) [nM]	Structure (SMILES)	IC50 ([1]; Homo sapiens, PBMC) [nM]	other results
320	COc1cccc2oc(C(=O)[C@H](CC(=O)O)NC(=O)[C@@H]3CCCN4C(=O)CC[C@H](NC(=O)CCc5ccccc5)C(=O)N34)nc12 [Compound 135b]	950	
90	COc1cccc2nc(C(=O)[C@H](CC(=O)O)NC(=O)[C@@H]3CCCN4C(=O)CC[C@H](NC(=O)CCc5ccccc5)C(=O)N34)oc12 [Compound 135a]	900	
390	O=C(O)C[C@H](NC(=O)Cn1c(Cc2ccccc2)ccc(NC(=O)CCc2ccccc2)c1=O)C(=O)CSCc1ccccc1Cl [Compound 125a]		IC50 [1]: > 30000 nM
3700	O=C[C@H](CC(=O)O)NC(=O)CN1CCN(Cc2ccccc2)C[C@H](NC(=O)OCc2ccccc2)C1=O [Compound 114b, 3(S)-{2-[4-Benzyl-7-oxo-6(S)—(N-benzyloxycarbonylamino)-[1,4]diazepan-1-yl]-acetylamino}-4-oxo-butyric acid trifluoroacetic acid salt]		
12500	O=C[C@H](CC(=O)O)NC(=O)[C@@H]1CCCN2C(=O)C[C@@H](NC(=O)CCc3ccccc3)C(=O)N12 [Compound 132b]		
680	O=C(O)C[C@H](NC(=O)[C@@H]1CCc2ncc(NC(=O)CCc3ccccc3)c(=O)n21)C(=O)c1ncc(-c2c(Cl)cccc2Cl)o1 [Compound 102c, 4-[5-(2,6-Dichloro-phenyl)-oxazol-2-yl]-4-oxo-(3S)-{[4-oxo-3-(3-phenyl-propionylamino)-4,6,7,8-tetrahydro-pyrrolo[1,2-a]pyrimidine-(6S)-carbonyl]-amino}-butyric acid]		
